Measured values from the supplement of paper PMC11061612.

Columns and labels:
MG-63 (Osteosarcoma) = assay: Bliss excess, mean over the matrix (fraction); higher = more synergy
In short: (§1)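 Cell lines grown in DMEM/F12 or RPMI with 10% FBS were plated in 1536-well plates and held 24 hours at 37°C, 5% CO2 before 72 hours of exposure to two-drug dose matrices, with DMSO typically at 0.2%. CellTiter-Glo 2.0 luminescence gave viability, which was converted to inhibition. Vehicle wells were set to 0 and blank wells to 1. Combination Emax is the second-highest inhibition in the matrix, and Bliss excess is the observed combination effect minus the expected EA + EB − EA·EB, where EA and EB are the single-agent effects.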

[1] = tested on: MDA-MB-175-VII (Breast Carcinoma); assay: as above
In short: as §1

[2] = tested on: NCI-H2023 (Non-Small Cell Lung Carcinoma); assay: as above
In short: as §1

NCI-H2452 (Mesothelioma) = assay: as above
In short: as §1

[3] = tested on: NTERA-2-cl-D1 (Other Solid Carcinomas); assay: as above
In short: as §1

[4] = tested on: NCI-H1435 (Non-Small Cell Lung Carcinoma); assay: combination Emax (second highest fraction inhibited in the dose matrix, 72 h); higher = more inhibition; extreme values may be limits of the assay
In short: as §1

[5] = tested on: MDA-MB-175-VII (Breast Carcinoma); assay: as above
In short: as §1

[6] = tested on: KNS-62 (Squamous Cell Lung Carcinoma); assay: as above
In short: as §1

[7] = tested on: MRK-nu-1 (Breast Carcinoma); assay: as above
In short: as §1

GCIY (Gastric Carcinoma) = assay: as above
In short: as §1

[8] = tested on: L-363 (Plasma Cell Myeloma); assay: as above
In short: as §1
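Throughout, for Bliss excess, mean over the matrix: after 72 h of two-drug dosing.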

SMILES | Bliss excess (MG-63 (Osteosarcoma)) | Bliss excess [1] | Bliss excess [2] | Bliss excess (NCI-H2452 (Mesothelioma)) | Bliss excess [3] | combination Emax [4] | combination Emax [5] | combination Emax [6] | combination Emax [7] | combination Emax (GCIY (Gastric Carcinoma)) | combination Emax [8]
CN(CCO)CC[C@H](CSc1ccccc1)Nc1ccc(S(=O)(=O)NC(=O)c2ccc(N3CCC([C@@H](O)c4ccccc4-c4ccc(Cl)cc4)CC3)cc2)cc1S(=O)(=O)C(F)(F)F [AZD4320] + CS(=O)(=O)CCNCc1ccc(-c2ccc3ncnc(Nc4ccc(OCc5cccc(F)c5)c(Cl)c4)c3c2)o1 [Lapatinib] (first compound max 1 µM, 7x7, partner max 10 µM) | -0.0176 | 0.0728 | 0.0132 | -0.019 | -0.026 | 0.953 | 1 | 0.291 | 0.387 | 0.956 | 0.154
O=C(c1cc(Cc2n[nH]c(=O)c3ccccc23)ccc1F)N1CCN(C(=O)C2CC2)CC1 [Olaparib] + CC1(C)CCC(CN2CCN(c3ccc(C(=O)NS(=O)(=O)c4ccc(NCC5CCOCC5)c([N+](=O)[O-])c4)c(Oc4cnc5[nH]ccc5c4)c3)CC2)=C(c2ccc(Cl)cc2)C1 [Venetoclax] (first compound max 10 µM, 7x7, partner max 1 µM) | 0.0113 | -0.0483 | -0.0292 | -0.0646 | -0.0419 | 0.117 | 0.297 | 0.147 | 0.293 | 0.119 | 0.305
CS(=O)(=O)CCNCc1ccc(-c2ccc3ncnc(Nc4ccc(OCc5cccc(F)c5)c(Cl)c4)c3c2)o1 [Lapatinib] + Cn1cnc2c(F)c(Nc3ccc(Br)cc3Cl)c(C(=O)NOCCO)cc21 [Selumetinib] (first compound max 10 µM, 7x7, partner max 10 µM) | -0.0863 | 0.0577 | -0.0391 | -0.0363 | -0.0125 | 0.559 | 0.993 | 0.626 | 0.441 | 0.543 | 0.104
O=C(c1cc(Cc2n[nH]c(=O)c3ccccc23)ccc1F)N1CCN(C(=O)C2CC2)CC1 [Olaparib] + Cc1c2c(nn1C)CSCc1cc(n(C)n1)CSc1cc(c3ccccc3c1)OCCCc1c(C(=O)O)n(C)c3c-2c(Cl)ccc13 [AZD5991] (first compound max 10 µM, 7x7, partner max 1 µM) | -0.0465 | -0.0155 | -0.0502 | -0.0199 | 0.0289 | 0.117 | 0.281 | 0.128 | 1 | 0.181 | 0.989
C[C@@H]1COCCN1c1cc(C2([S@](C)(=N)=O)CC2)nc(-c2ccnc3[nH]ccc23)n1 [AZD6738] + C1CC(C1)(C(=O)[O-])C(=O)[O-].N.N.[Pt+2] [Carboplatin] (first compound max 10 µM, 7x7, partner max 10 µM) | -0.0391 | -0.0024 | -0.0208 | -0.0212 | -0.0651 | 0.136 | 0.309 | 0.438 | 0.6 | 0.643 | 0.528
C=CCn1c(=O)c2cnc(Nc3ccc(N4CCN(C)CC4)cc3)nc2n1-c1cccc(C(C)(C)O)n1 [AZD1775] + CCc1c2c(nc3ccc(O)cc13)-c1cc3c(c(=O)n1C2)COC(=O)[C@]3(O)CC [SN-38] (first compound max 1 µM, partner max 0.3 µM) | -0.0239 | -0.0068 | -0.0478 | -0.0145 | 0.0011 | 0.547 | 0.659 | 0.836 | 0.81 | 0.756 | 0.903
C[C@@H](Nc1cc(F)cc(F)c1)c1cc(C(=O)N(C)C)cc2c(=O)cc(N3CCOCC3)oc12 [AZD8186] + CC(=O)c1c(C)c2cnc(Nc3ccc(N4CCNCC4)cn3)nc2n(C2CCCC2)c1=O [Palbociclib] (first compound max 10 µM, 7x7, partner max 10 µM) | 0.0535 | -0.0148 | 0.0108 | -0.0353 | 0.0104 | 0.361 | 0.456 | 0.358 | 0.36 | 0.662 | 0.737
Cc1c2c(nn1C)CSCc1cc(n(C)n1)CSc1cc(c3ccccc3c1)OCCCc1c(C(=O)O)n(C)c3c-2c(Cl)ccc13 [AZD5991] + CS(=O)(=O)CCNCc1ccc(-c2ccc3ncnc(Nc4ccc(OCc5cccc(F)c5)c(Cl)c4)c3c2)o1 [Lapatinib] (first compound max 1 µM, 7x7, partner max 10 µM) | -0.0352 | 0.04 | 0.0021 | -0.0576 | -0.0334 | 0.219 | 0.973 | 0.213 | 1 | 0.447 | 0.993
CC1(C)CCC(CN2CCN(c3ccc(C(=O)NS(=O)(=O)c4ccc(NCC5CCOCC5)c([N+](=O)[O-])c4)c(Oc4cnc5[nH]ccc5c4)c3)CC2)=C(c2ccc(Cl)cc2)C1 [Venetoclax] + CS(=O)(=O)CCNCc1ccc(-c2ccc3ncnc(Nc4ccc(OCc5cccc(F)c5)c(Cl)c4)c3c2)o1 [Lapatinib] (first compound max 1 µM, 7x7, partner max 10 µM) | 0.0029 | 0.0085 | -0.06 | -0.0546 | -0.0618 | 0.195 | 0.937 | 0.186 | 0.114 | 0.276 | 0.133
